Measurements as given in the supplement of paper PMC10307832.

How the values were obtained:
Test in all cases: relative viability (nuclei count vs DMSO), 5 days (fraction); higher = more cells survive
Cediranib + Linsitinib = compound: COc1cc2c(Oc3ccc4[nH]c(C)cc4c3F)ncnc2cc1OCCCN1CCCC1 [Cediranib] + C[C@]1(O)C[C@@H](c2nc(-c3ccc4ccc(-c5ccccc5)nc4c3)c3c(N)nccn32)C1 [Linsitinib] (partner 1 µM)
Outline: (§1)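 Nuclei were stained with Hoechst during a one-step fixation (final 0.05% Triton X-100, 1% formaldehyde, 1 ug/ml Hoechst) carried out 5 days after dosing, then counted on 4× images. The cells, lung cancer lines in 1536-well plates, had been dosed by pin tool the day after seeding with one drug alone or a fixed anchor-drug dose plus five library-drug doses (not always all listed) in √10 steps. Relative viability is the nuclei count in treated wells divided by that in vehicle wells, and each value is the median of duplicate plates.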

Cediranib + AZD7762 = compound: COc1cc2c(Oc3ccc4[nH]c(C)cc4c3F)ncnc2cc1OCCCN1CCCC1 [Cediranib] + NC(=O)Nc1cc(-c2cccc(F)c2)sc1C(=O)N[C@H]1CCCNC1 [AZD7762] (partner 0.2 µM)
Outline: as §1

[1] = compound: O=C(C[C@H]1NCCC[C@@H]1O)Cn1cnc2cc(Br)c(Cl)cc2c1=O (racemic) [Halofuginone] + CCNC(=O)c1noc(-c2cc(C(C)C)c(O)cc2O)c1-c1ccc(CN2CCOCC2)cc1 [Luminespib] (partner 0.01 µM)
Outline: as §1

Decitabine + Trametinib = compound: Nc1ncn([C@H]2C[C@H](O)[C@@H](CO)O2)c(=O)n1 [Decitabine] + CC(=O)Nc1cccc(-n2c(=O)n(C3CC3)c(=O)c3c(Nc4ccc(I)cc4F)n(C)c(=O)c(C)c32)c1 [Trametinib] (partner 0.02 µM)
Outline: as §1

Cell Line	relative viability (Cediranib + Linsitinib; first compound 0.04 µM)	relative viability (Cediranib + Linsitinib; first compound 0.1265 µM)	relative viability (Cediranib + Linsitinib; first compound 0.4 µM)	relative viability (Cediranib + Linsitinib; first compound 1.265 µM)	relative viability (Cediranib + Linsitinib; first compound 4 µM)	relative viability (Cediranib + AZD7762; first compound 0.04 µM)	relative viability (Cediranib + AZD7762; first compound 0.1265 µM)	relative viability (Cediranib + AZD7762; first compound 0.4 µM)	relative viability (Cediranib + AZD7762; first compound 1.265 µM)	relative viability (Cediranib + AZD7762; first compound 4 µM)	relative viability ([1]; first compound 0.001 µM)	relative viability ([1]; first compound 0.003162 µM)	relative viability ([1]; first compound 0.01 µM)	relative viability ([1]; first compound 0.03162 µM)	relative viability ([1]; first compound 0.1 µM)	relative viability (Decitabine + Trametinib; first compound 0.04 µM)	relative viability (Decitabine + Trametinib; first compound 0.1265 µM)	relative viability (Decitabine + Trametinib; first compound 0.4 µM)	relative viability (Decitabine + Trametinib; first compound 1.265 µM)	relative viability (Decitabine + Trametinib; first compound 4 µM)
LOU-NH91	0.905	1.2	0.915	0.969	0.759	0.803	0.86	0.693	0.697	0.803	0.332	0.361	0.354	0.346	0.339	0.661	0.831	0.78	0.707	0.757
SW 900						0.839	0.536	0.594	0.621	0.835	0.205	0.187	0.144	0.181	0.154	0.389	0.435	0.288	0.262	0.288
IA-LM	0.629	0.772	0.586	0.436	0.634															
SK-MES-1	1.04	1.04	1.06	0.959	1.13						0.842	0.704	0.756	0.284	0.164	0.485	0.595	0.453	0.345	0.382
Calu-6	0.881	0.971	0.938	0.854	1.06															
SK-LU-1	1.18	1.04	0.979	1.06	1.07						0.202	0.196	0.23	0.219	0.174	0.443	0.528	0.386	0.45	0.365
NCI-H2023	0.656	0.641	0.638	0.588	0.765						0.849	0.699	0.529	0.148	0.0557	0.473	0.464	0.296	0.196	0.197
HCC-366	0.65	0.634	0.582	0.542	1.05	0.41	0.314	0.181	0.376	0.266						0.361	0.334	0.258	0.12	0.109
NCI-H1650											0.188	0.217	0.193	0.204	0.235	0.369	0.642	0.536	0.326	0.287
SW 1573	0.71	0.698	0.743	0.754	0.861						0.507	0.152	0.265	0.113	0.0969	0.44	0.638	0.368	0.27	0.301
NCI-H661	0.509	0.733	0.596	0.527	0.743						0.83	0.953	0.88	0.696	0.504	0.502	0.577	0.508	0.392	0.404
NCI-H2228	0.873	0.955	0.8	0.536	1.03						0.136	0.139	0.12	0.118	0.126	0.396	0.394	0.358	0.198	0.204
COR-L23	1.08	0.871	0.939	0.806	1.14						0.819	0.636	0.699	0.368	0.211	0.374	0.452	0.321	0.219	0.23
NCI-H2342						0.502	0.635	0.421	0.402	0.464	0.817	0.719	0.699	0.731	0.64	0.959	1.03	0.88	0.606	0.72
NCI-H1299	1	0.977	0.96	0.988	0.947															
NCI-H520	1.08		0.809	0.806	0.908						0.232	0.241	0.185	0.206	0.236	0.529	0.349	0.424	0.307	0.266
NCI-H522						0.84	0.643	0.887	0.729	0.744	1.14	1.81	1.12	1.28	1.09	0.718	0.714	0.547	0.537	0.513
NCI-H1623											0.622	0.465	0.461	0.622	0.485					
NCI-H2170						0.871		0.743	0.611	1.1	0.681	0.631	0.557	0.758	0.603	0.651	0.639	0.587	0.41	0.282
NCI-H1648						0.586	0.533	0.636	0.514	0.72						0.442	0.462	0.452	0.379	0.355
NCI-H1703	0.458	0.452	0.372	0.26	0.183	0.116		0.135	0.122	0.123										
ABC-1	0.656	0.97	0.799		0.786	0.635	0.729	0.813	0.905	0.723		0.793	0.518	0.225	0.377					
ChaGo-K-1						0.843	0.684	0.886	0.9	0.948	0.683	0.712	0.713	0.563	0.563	0.729	0.628	0.5	0.434	0.62
COR-L 105		0.909	0.946	0.972	0.938						0.668	0.606	0.694	0.639	0.532	0.411	0.461	0.451	0.429	0.383
NCI-H2009	1.2	1.18	1.18	1.19	1.16						1.07	1.04	1.03	0.904	0.692	0.227	0.255	0.229	0.181	0.252
